Measured values taken from US8815940B2, “Coumarin-chalcones as anticancer agents” (Council of Scientific & Industrial Research, priority 2010, dated 2014).
Where two headings read alike, the source gives them in different places.

Experiments:
[1] = system: mouse embryo fibroblast (NIH3T3); assay: sulforhodamine B cell cytotoxicity assay, NIH3T3 non-cancer cells; type: cell-based; conditions: 48 h of exposure
Protocol: (§1) The human cancer cell lines—KB (oral squamous cell carcinoma). C33A (cervical carcinoma), MCF-7 (breast adenocarcinoma), A549 (lung carcinoma) and mouse embryo fibroblast (NIH3T3) were obtained from American Type Culture Collection (ATCC), USA. These cells were grown in recommended media supplemented with 10% FBS, 50 μg/mL gentamycin and 2.5 μg/mL amphotericin B in a 5% CO2 humidified atmosphere at 37° C. Cells below 15 passage level were used for this study. A colorimetric sulforhodamine B assay was used for the measurement of cell cytotoxicity. 1×10^4 cells (in 180 μL) were added to each well of 96-well plate and incubated overnight to allow for cell attachment. Cells were then treated with serial two-fold dilutions of test compounds (100 to 1.6 μM) and untreated cells receiving the same volume of medium served as control. After 48 h of exposure, cells were fixed with ice-cold 50% TCA, stained with 0.4% (w/v) SRB in 1% acetic acid, washed and air dried. Bound dye was dissolved in 150 μL of 10 mM tris base. The plates were read at 540 nm absorbance on plate reader (Polarstar Galaxy, BMG, Germany). The cytotoxic effects of compounds were calculated as % inhibition in cell growth as per the formula […].

A549 (lung carcinoma) = assay: sulforhodamine B cell cytotoxicity assay, A549; type: cell-based; conditions: Homo sapiens, Table 2, SRB assay, 48 h of exposure
Protocol: as §1

[2] = system: KB (oral squamous cell carcinoma); assay: sulforhodamine B cell cytotoxicity assay, KB; type: cell-based; conditions: Homo sapiens; Table 2; SRB assay, 48 h of exposure
Protocol: as §1

[3] = system: C33A (cervical carcinoma); assay: sulforhodamine B cell cytotoxicity assay, C33A; type: cell-based, human; conditions: Homo sapiens, C-33-A, SRB assay, 48 h of exposure
Protocol: as §1

[4] = system: MCF-7 (breast adenocarcinoma); assay: sulforhodamine B cell cytotoxicity assay, MCF-7; type: cell-based; conditions: Homo sapiens, MCF7; Table 2; SRB assay, 48 h of exposure
Protocol: as §1

[5] = animal weight and overt toxicity in the xenograft study; type: in vivo, SCID mice; conditions: ADR 2 mg/kg I.V. Q7dx3
Protocol: (§2) The in vivo efficacy studies were performed using human tumor xenografts in SCID mice. Human cervical cancer cells (HeLa) were injected subcutaneously (1×10^7 cells in 100 μl HBSS medium) on the right flank of each mouse. Tumor bearing mice were divided randomly into treatment groups and the treatment schedules began on day 7 of the xenograft. The test compound (S009-0131) was administered orally to each mouse at a daily dose of 100 mg/kg body weight, for 15 days. The standard anti-cancer drug Adriamycin (ADR) was used as ‘positive’ control and given to each mouse as an i.v. dose of 2 mg/kg body weight, Q7d×3 ([…]). The group of vehicle treated animals served as ‘negative’ control.
(§3) The tumor volume, body weight and signs of overt toxicity were monitored and recorded for the entire duration of the experiment (60 days). Tumor volumes were calculated using the formula (a×b2)/2, where a, b are two longest perpendicular diameters. Tumor growth was expressed in terms of relative tumor volume (RTV) which is the ratio of tumor volume on a particular day to the tumor volume on day 1 of the study. Tumor growth inhibition index (T/C) was calculated as follows: T/C=Average RTV of test group mice/Average RTV of control group mice.

[6] = system: HeLa Human cervical cancer cells; assay: human tumor xenograft in SCID mice, tumor growth; type: in vivo; conditions: ADR 2 mg/kg I.V. Q7dx3
Protocol: as §2, §3

[7] = Table 2, SRB assay, read-out: IC50 NIH3T3 (Non-cancer, fibroblast)
[8] = Table 2, read-out: IC50 C33A (Cervical)
[9] = Table 1, SRB assay, read-out: IC50 NIH3T3 (mouse fibroblast)
[10] = Table 1, read-out: IC50 C33A (cervical cancer)

CCN(CC)C(=O)c1cc2cc(/C=C/C(=O)c3ccc(C)cc3)cc(C(C)(C)C)c2oc1=O [Example S010-1992, (E)-8-tert-butyl-N,N-diethyl-2-oxo-6-(3-oxo-3-p-tolylprop-1-enyl)-2H-chromene-3-carboxamide]
IC50 [1, 7]: > 150 µM | IC50 (A549 (lung carcinoma)): 1.5 µM | IC50 [2]: 2.02 µM | IC50 [3, 8]: 1.53 µM | melting point: 170 to 171 °C | IC50 [4]: < 7.01 µM

CCC(C)c1cc(C=CC(=O)c2ccccc2)cc2cc(C(=O)OC)c(=O)oc12 (centres unmarked) [Example S009-0133, Methyl 8-sec-butyl-2-oxo-6-(3-oxo-3-phenylprop-1-enyl)-2H-chromene-3-carboxylate]
IC50 [1, 7]: > 150 µM | IC50 (A549 (lung carcinoma)): 10.7 µM | IC50 [2]: 13.4 µM | IC50 [3, 8]: 6.28 µM | melting point: 139 to 140 °C | IC50 [4]: 11.4 µM

COC(=O)c1cc2cc(/C=C/C(=O)c3cc(OC)c(OC)c(OC)c3)cc(C(C)(C)C)c2oc1=O [Example S010-2003, (E)-methyl 8-tert-butyl-2-oxo-6-(3-oxo-3-(3,4,5-trimethoxyphenyl)prop-1-enyl)-2H-chromene-3-carboxylate]
IC50 [1, 7]: > 150 µM | IC50 (A549 (lung carcinoma)): 11.1 µM | IC50 [2]: 8.3 µM | IC50 [3, 8]: 4.99 µM | melting point: 145 to 146 °C | IC50 [4]: 13.3 µM

CCC(C)c1cc(C=CC(=O)c2ccc(Cl)cc2)cc2cc(C(=O)OC)c(=O)oc12 (centres unmarked) [Example S009-0136, Methyl 8-sec-butyl-6-(3-(4-chlorophenyl)-3-oxoprop-1-enyl)-2-oxo-2H-chromene-3-carboxylate]
IC50 [1, 7]: 42.4 µM | IC50 (A549 (lung carcinoma)): 16.7 µM | IC50 [2]: 28.2 µM | IC50 [3, 8]: 5.9 µM | melting point: 145 to 146 °C | IC50 [4]: 10.8 µM

CCOC(=O)c1cc2cc(C=CC(=O)c3ccc(Cl)cc3)cc(C(C)CC)c2oc1=O (centres unmarked) [Example S009-0135, Ethyl 8-sec-butyl-6-(3-(4-chlorophenyl)-3-oxoprop-1-enyl)-2-oxo-2H-chromene-3-carboxylate]
IC50 [1, 7]: 38.4 µM | IC50 (A549 (lung carcinoma)): 12.8 µM | IC50 [2]: 14.3 µM | IC50 [3, 8]: 4.54 µM | IC50 [4]: 11.1 µM

CCOC(=O)c1cc2cc(/C=C/C(=O)c3cc(OC)c(OC)c(OC)c3)cc(C(C)CC)c2oc1=O (centres unmarked) [Example S010-2000, (E)-ethyl 8-sec-butyl-2-oxo-6-(3-oxo-3-(3,4,5-trimethoxyphenyl)prop-1-enyl)-2H-chromene-3-carboxylate]
IC50 [1, 7]: > 150 µM | IC50 (A549 (lung carcinoma)): 11.6 µM | IC50 [2]: 9.36 µM | IC50 [3, 8]: 5.72 µM | melting point: 128 to 129 °C | IC50 [4]: 11.5 µM

CCC(C)c1cc(/C=C/C(=O)c2ccc(C)cc2)cc(C=O)c1O (centres unmarked) [Example S008-0392, (E)-3-sec-butyl-2-hydroxy-5-(3-oxo-3-p-tolylprop-1-enyl)benzaldehyde]
IC50 [1, 9]: 129 µM | IC50 [3, 10]: 10.2 µM

CCOC(=O)c1cc2cc(C=CC(=O)c3ccccc3)cc(C(C)CC)c2oc1=O (centres unmarked) [Example S009-0132, Ethyl 8-sec-butyl-2-oxo-6-(3-oxo-3-phenylprop-1-enyl)-2H-chromene-3-carboxylate]
IC50 [1, 7]: > 150 µM | IC50 (A549 (lung carcinoma)): 12.9 µM | IC50 [2]: 10.5 µM | IC50 [3, 8]: 8.12 µM | melting point: 155 to 156 °C | IC50 [4]: 88.1 µM

CCC(C)c1cc(/C=C/C(=O)c2ccc(C)cc2)cc2cc(C(=O)N(CC)CC)c(=O)oc12 (centres unmarked) [Example S010-1996, (E)-8-sec-butyl-N,N-diethyl-2-oxo-6-(3-oxo-3-p-tolylprop-1-enyl)-2H-chromene-3-carboxamide]
IC50 [1, 7]: > 150 µM | IC50 (A549 (lung carcinoma)): 3.77 µM | IC50 [2]: 3.55 µM | IC50 [3, 8]: 3.12 µM | melting point: 146 to 147 °C | IC50 [4]: < 7.01 µM

CCC(C)c1cc(/C=C/C(=O)c2cc(OC)c(OC)c(OC)c2)cc2cc(C(=O)OC)c(=O)oc12 (centres unmarked) [Example S010-2001, (E)-methyl 8-sec-butyl-2-oxo-6-(3-oxo-3-(3,4,5-trimethoxyphenyl)prop-1-enyl)-2H-chromene-3-carboxylate]
IC50 [1, 7]: > 150 µM | IC50 (A549 (lung carcinoma)): 3.68 µM | IC50 [2]: 3.1 µM | IC50 [3, 8]: 2.56 µM | melting point: 138 to 139 °C | IC50 [4]: 10.2 µM

CCNC(=O)c1cc2cc(/C=C/C(=O)c3ccc(C)cc3)cc(C(C)CC)c2oc1=O (centres unmarked) [Example S010-1995, (E)-8-sec-butyl-N-ethyl-2-oxo-6-(3-oxo-3-p-tolylprop-1-enyl)-2H-chromene-3-carboxamide]
IC50 [1, 7]: > 150 µM | IC50 (A549 (lung carcinoma)): > 150 µM | IC50 [2]: 10.7 µM | IC50 [3, 8]: 5.56 µM | melting point: 162 to 163 °C | IC50 [4]: 22.2 µM

CCC(C)c1cc(/C=C/C(=O)c2ccc(C)cc2)cc2cc(C(=O)NC)c(=O)oc12 (centres unmarked) [Example S010-1994, (E)-8-sec-butyl-N-methyl-2-oxo-6-(3-oxo-3-p-tolylprop-1-enyl)-2H-chromene-3-carboxamide]
melting point: 215 to 216 °C

CCOC(=O)c1cc2cc(C=O)cc(C(C)CC)c2oc1=O (centres unmarked) [Example S009-0139, Ethyl 8-sec-butyl-6-formyl-2-oxo-2H-chromene-3-carboxylate]
IC50 [1, 9]: > 150 µM | IC50 [1, 7]: > 150 µM | IC50 (A549 (lung carcinoma)): 147 µM | IC50 [2]: 132 µM | IC50 [3, 10]: 64.3 µM | IC50 [3, 8]: 64.3 µM | melting point: 89 to 90 °C | IC50 [4]: 113 µM

Cc1ccc(C(=O)/C=C/c2cc(C(C)(C)C)c3oc(=O)c(C(=O)O)cc3c2)cc1 [Example-9, (E)-8-tert-butyl-2-oxo-6-(3-oxo-3-p-tolylprop-1-enyl)-2H-chromene-3-carboxylic Acid]
melting point: 185 to 186 °C

COc1cccc2c1C(=O)c1c(O)c3c(c(O)c1C2=O)C[C@@](O)(C(=O)CO)C[C@@H]3O[C@H]1C[C@H](N)[C@H](O)[C@H](C)O1 [Doxorubicin, reference compound]
IC50 (A549 (lung carcinoma)): 0.52 µM | Average Animal weight ([5]; day 1): 20.7 grams | Average Animal weight ([5]; day 5): 20.9 grams | Average Animal weight ([5]; day 9): 20.6 grams | Average Animal weight ([5]; day 12): 20.3 grams | Average Animal weight ([5]; day 15): 19.6 grams | Average Animal weight ([5]; day 19): 18.3 grams | Average Animal weight ([5]; day 22): 19.7 grams | Average Animal weight ([5]; day 25): 19.9 grams | Average Animal weight ([5]; day 29): 20.4 grams | Average Animal weight ([5]; day 33): 20.6 grams | Average Animal weight ([5]; day 37): 24.8 grams | Average Animal weight ([5]; day 41): 21.8 grams | Average Animal weight ([5]; day 44): 22.1 grams | Average Animal weight ([5]; day 51): 21.2 grams | RTV (relative tumor volume) ([6]; day 1): 1 | T/C (tumor growth inhibition index) ([6]; day 1): 1 | RTV (relative tumor volume) ([6]; day 5): 0.69 | T/C (tumor growth inhibition index) ([6]; day 5): 0.53 | RTV (relative tumor volume) ([6]; day 9): 0.72 | T/C (tumor growth inhibition index) ([6]; day 9): 0.44 | RTV (relative tumor volume) ([6]; day 12): 0.92 | T/C (tumor growth inhibition index) ([6]; day 12): 0.47 | RTV (relative tumor volume) ([6]; day 15): 1.39 | T/C (tumor growth inhibition index) ([6]; day 15): 0.43 | RTV (relative tumor volume) ([6]; day 19): 1.65 | T/C (tumor growth inhibition index) ([6]; day 19): 0.45 | RTV (relative tumor volume) ([6]; day 22): 3.52 | T/C (tumor growth inhibition index) ([6]; day 22): 0.68 | RTV (relative tumor volume) ([6]; day 25): 3.84 | T/C (tumor growth inhibition index) ([6]; day 25): 0.62 | RTV (relative tumor volume) ([6]; day 29): 4.60 | T/C (tumor growth inhibition index) ([6]; day 29): 0.63 | RTV (relative tumor volume) ([6]; day 33): 4.69 | T/C (tumor growth inhibition index) ([6]; day 33): 0.47 | T/C (tumor growth inhibition index) ([6]; day 37): 0.58 | T/C (tumor growth inhibition index) ([6]; day 41): 0.49 | T/C (tumor growth inhibition index) ([6]; day 44): 0.43 | T/C (tumor growth inhibition index) ([6]; day 51): 0.43 | IC50 [2]: 0.22 µM | IC50 [3, 8]: 0.82 µM | IC50 [4]: 0.61 µM
